According to article PMC10953480 (RSC Medicinal Chemistry, 2024):

Key:
Cos-7 cells = experiment: Cytotoxicity to Cos-7 cells; type: cell-based, African green monkey (Cercopithecus aethiops)
CaV2.2 = conditions: read-out: CaV2.2 IC50; whole-cell patch clamp; cited from earlier work

| SMILES | concentration up to which well tolerated by Cos-7 cells (Cos-7 cells) | IC50 (CaV2.2) |
| --- | --- | --- |
| CN(C)CCCOc1ccc(C(=O)Nc2ccccc2Oc2ccccc2)cc1 [7b] | ≤ 100 µM |  |
| NC(N)=NCCCOc1ccc(C(=O)Nc2ccccc2Oc2ccc(F)cc2)cc1 [MONIRO-1 6a] |  | 34 µM |
